Assays:
Format in all cases: biochemical
[1] = biological target: T1, catalase (from bovine liver), native (nC) (Bos taurus, UniProt P00432); assay: Catalytic constants of native catalase (nC) from effect of H2O2 concentration on rate of H2O2 decomposition; conditions: H2O2 0 to 65 mM, catalase 2 μg/mL, 50 mM phosphate buffer pH 7.4, 240 nm, Lineweaver-Burk
T1 construct: purchased Calbiochem (Gibbstown, N.J.); host or cells: bovine liver
T1 sequence (P00432 2-527 limits assumed): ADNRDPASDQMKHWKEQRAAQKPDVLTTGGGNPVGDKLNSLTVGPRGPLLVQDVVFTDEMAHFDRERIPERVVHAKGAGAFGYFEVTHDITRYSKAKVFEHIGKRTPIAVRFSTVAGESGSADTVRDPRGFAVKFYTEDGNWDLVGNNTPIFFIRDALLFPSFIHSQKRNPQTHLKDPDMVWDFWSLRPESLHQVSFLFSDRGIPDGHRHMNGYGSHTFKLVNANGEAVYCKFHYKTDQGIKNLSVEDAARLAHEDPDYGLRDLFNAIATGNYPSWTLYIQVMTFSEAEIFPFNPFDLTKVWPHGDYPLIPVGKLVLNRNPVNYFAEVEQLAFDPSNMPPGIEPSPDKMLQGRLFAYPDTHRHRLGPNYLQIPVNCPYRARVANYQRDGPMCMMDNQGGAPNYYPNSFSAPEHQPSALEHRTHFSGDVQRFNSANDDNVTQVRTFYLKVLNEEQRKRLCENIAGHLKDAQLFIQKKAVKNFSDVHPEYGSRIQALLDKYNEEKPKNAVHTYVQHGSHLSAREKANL
Experimental: (§1) SOD1 (from bovine erythrocytes), hydrogen peroxide (H2O2), 2,3,5-triphenyltetrazolium chloride (TTC) and copper standards for Inductively Coupled Plasma Mass Spectroscopy (ICP-MS)— TraceCERT®, 1000 mg/L Cu in nitric acid) were from Sigma-Aldrich (St. Louis, Mo.). Catalase (from bovine liver) was from Calbiochem (Gibbstown, N.J.). PEG-pLL50 was from Alamanda Polymers™ (Huntsville, Ala.). […] Cross-linkers 3,3′-dithiobis(sulfosuccinimidylpropionate) (DTSSP) and bis(sulfosuccinimidyl)suberate (BS^3) were from Thermo Fisher Scientific (Rockford, Ill.). NAP™ desalting columns and HiPrep 16/60 Sephacryl S-400 HR column were from GE Healthcare (Piscataway, N.J.). Criterion Tris-HCl gels and Precision Plus Protein™ All Blue Standards were from Bio-Rad (Hercules, Calif.). SYPRO® Ruby protein gel stain and cell culture reagents were purchased from Invitrogen (Carlsbad, Calif.). CellTiter 96® AQueous One Solution Cell Proliferation Assay (MTS) was from Promega (Madison, Wis.). LumiMax Superoxide Anion Detection Kit was from Agilent Technologies, Inc. (Santa Clara, Calif.). All other reagents and supplies were from Fisher Scientific (Pittsburgh, Pa.) unless noted otherwise.

[2] = biological target: T2, catalase (from bovine liver), cleavable DTSSP cross-linked cl-nanozyme with PEG-pLL50, non-purified (C2) (Bos taurus, UniProt P00432); assay: Catalytic constants of DTSSP cross-linked catalase cl-nanozyme (C2) from effect of H2O2 concentration on rate of H2O2 decomposition
T2 construct: purchased Calbiochem (Gibbstown, N.J.); host or cells: bovine liver
T2 sequence (P00432 2-527 limits assumed): T1 sequence (P00432 2-527 limits assumed)
Experimental: as §1
(§2) Enzyme and polymer stock solutions were prepared in 10 mM HEPES (pH 7.4) and 10 mM HEPES-buffered saline (HBS; pH 7.4) for SOD1 and catalase, respectively. Non-cross-linked BICs (Z+/−=2) were prepared as described (Klyachko et al. (2012) Nanomed. Nanotechnol. Biol. Med., 8:119-129). Targeted degree of cross-linking was defined as the molar ratio between cross-linker (DTSSP/BS^3) and pLL amines Precalculated amount of the respective cross-linker was dissolved in the reaction buffer (HEPES/HBS), quickly added to BICs, and the reaction mixture was briefly vortexed and incubated for 2 hours on ice. Unreacted crosslinker was desalted using NAP™ columns following manufacturer's instructions. Cl-Nanozymes were purified using size exclusion chromatography (SEC) (small/intermediate scale) or centrifugal filtration (large scale). […] Protein concentration was determined using Micro BCA™ Protein Assay Kit. […]

[3] = biological target: T3, catalase (from bovine liver), cleavable DTSSP cross-linked cl-nanozyme with PEG-pLL50, purified (C2p) (Bos taurus, UniProt P00432); assay: Catalytic constants of purified DTSSP cross-linked catalase cl-nanozyme (C2p) from effect of H2O2 concentration on rate of H2O2 decomposition
T3 construct: purchased Calbiochem (Gibbstown, N.J.); host or cells: bovine liver
T3 sequence (P00432 2-527 limits assumed): T1 sequence (P00432 2-527 limits assumed)
Experimental: as §1
as §2, with “scale). SEC was carried out using an ÄKTA™ Fast Protein Liquid Chromatography (FPLC) (Amersham Biosciences, Piscataway, N.J.) system. DTSSP cl-nanozymes were lyophilized overnight, reconstituted in deionized water (DW), loaded onto a HiPrep 16/60 Sephacryl™ S-400 HR column and eluted using 10 mM HBS (pH 7.4) at a flow rate of 0.5 mL/minute. Prior to each experiment, the column was pre-conditioned with free block copolymer (PEG-pLL50) to minimize non-specific adsorption of the cl-nanozymes (Boeckle et al. (2004) J. Gene Med., 6:1102-1111).” for “scale).”

[4] = H2O2 0 to 65 mM, catalase 2 μg/mL, 50 mM phosphate buffer pH 7.4, 240 nm, Lineweaver-Burk, non-purified cl-nanozyme C2
[5] = H2O2 0 to 65 mM, catalase 2 μg/mL, 50 mM phosphate buffer pH 7.4, 240 nm, Lineweaver-Burk, purified cl-nanozyme C2p

Structure (SMILES): OO [H2O2, hydrogen peroxide]
- Km [1]: 53.2 mM
- kcat [1]: 798000 s⁻¹
- increase in Km value ([2]; C2 compared to native catalase (nC)): ca. 1.8 fold
- Km [2, 4]: 94.1 mM
- kcat [2, 4]: 1.56e+06 s⁻¹
- kcat/Km lower than nC ([3]; C2p compared to native catalase (nC)): ca. 48%
- kcat/Km lower than C2 ([3]; C2p compared to non-purified cl-nanozyme (C2)): ~53%
- Km [3, 5]: 93.2 mM
- kcat [3, 5]: 722000 s⁻¹
